Biological target: T1, SARM1 (50-724) (Homo sapiens, UniProt Q6SZW1)
T1 construct: Purified SARM1 (50-724) with a final concentration of 2 nM was pre-incubated with a test compound
T1 sequence (Q6SZW1 50-724): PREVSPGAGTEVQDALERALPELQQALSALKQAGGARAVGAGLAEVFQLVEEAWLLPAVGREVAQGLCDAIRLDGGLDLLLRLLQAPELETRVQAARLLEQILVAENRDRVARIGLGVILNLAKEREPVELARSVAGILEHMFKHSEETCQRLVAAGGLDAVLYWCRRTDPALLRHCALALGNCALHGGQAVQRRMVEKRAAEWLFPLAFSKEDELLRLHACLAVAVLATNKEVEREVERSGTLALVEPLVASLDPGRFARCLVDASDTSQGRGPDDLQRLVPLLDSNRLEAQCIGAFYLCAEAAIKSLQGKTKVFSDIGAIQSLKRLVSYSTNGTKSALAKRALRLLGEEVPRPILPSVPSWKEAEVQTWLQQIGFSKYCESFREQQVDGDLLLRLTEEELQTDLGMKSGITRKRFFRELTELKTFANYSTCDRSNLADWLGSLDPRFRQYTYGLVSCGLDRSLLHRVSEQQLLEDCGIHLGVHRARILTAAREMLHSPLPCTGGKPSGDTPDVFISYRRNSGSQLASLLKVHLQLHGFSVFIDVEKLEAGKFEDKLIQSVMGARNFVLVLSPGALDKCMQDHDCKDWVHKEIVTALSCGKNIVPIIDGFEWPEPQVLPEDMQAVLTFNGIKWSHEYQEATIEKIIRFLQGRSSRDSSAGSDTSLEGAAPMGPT
Assay: SARM1 (50-724) enzymatic assay (LC-MS/MS)
Type: biochemical
Settings: Purified SARM1 (50-724) 2 nM, NMN as activator, NAD+ as substrate, 1 h at room temperature, read-out: IC50 (SARM1 inhibitory activity)
Method: An enzymatic assay was performed in a 384-well plate using Dulbecco's phosphate-buffered saline (PBS) as the reaction buffer. Purified SARM1 (50-724) with a final concentration of 2 nM was pre-incubated with a test compound at […] final assay concentration for 15 min at room temperature. The reaction was initiated by adding a mixture of […] nicotinamide mononucleotide (NMN) as activator and […] NAD^+ as substrate. After 1 h of incubation at room temperature, the reaction was terminated with 10 times volume of 70% acetonitrile, and then centrifuged at 3800 rpm for 10 min. The samples were analyzed using LC-MS/MS after diluted to a proper concentration by 10 mM ammonium acetate (pH 9.75).
In Table 2, activity is provided as follows: A: IC50≤100 nM; B: 100 nM<IC50≤500 nM; C: 500 nM<IC50≤1000 nM; D: IC50>1000 nM.

SMILES | IC50 [nM]
Cc1ccc2[nH]c(-c3cc(C#N)cn3C3CCCC3)nc2c1 [Compound 18, 1-cyclopentyl-5-(5-methyl-1H-benzo[d]imidazol-2-yl)-1H-pyrrole-3-carbonitrile] | 100 to 500
FC(F)(F)c1ccc2[nH]c(-c3nncn3-c3ccncc3OC3CC3)nc2c1 [Compound 228] | > 1000
FC(F)(F)c1ccc2[nH]c(-c3nncn3-c3c(Cl)ccc4[nH]ncc34)nc2c1 [Compound 209, 5-chloro-4-(3-(5-(trifluoromethyl)-1H-benzo[d]imidazol-2-yl)-4H-1,2,4-triazol-4-yl)-1H-indazole] | ≤ 100
FC(F)(F)c1ccc2[nH]c(-c3nncn3-c3cnccc3C(F)(F)F)c(-c3ccncc3)c2c1 [Compound 386, 3-(4-pyridyl)-5-(trifluoromethyl)-2-[4-[4-(trifluoromethyl)-3-pyridyl]-1,2,4-triazol-3-yl]-1H-indole] | ≤ 100
CN(c1cc(F)c2[nH]c(-c3nncn3-c3cnccc3C(F)(F)F)nc2c1)c1nccs1 [Compound 417, N-(7-fluoro-2-(4-(4-(trifluoromethyl)pyridin-3-yl)-4H-1,2,4-triazol-3-yl)-1H-benzo[d]imidazol-5-yl)-N-methylthiazol-2-amine] | ≤ 100
CCC(O)(CC)c1ccc2[nH]c(-c3nncn3-c3ccc(F)c(F)c3Cl)nc2c1 [Compound 151, 3-(2-(4-(2-chloro-3,4-difluorophenyl)-4H-1,2,4-triazol-3-yl)-1H-benzo[d]imidazol-5-yl)pentan-3-ol] | ≤ 100
COC(C)(C)c1ccc2[nH]c(-c3nncn3-c3cccc(Cl)c3Cl)nc2c1 [Example 110] | ≤ 100
CS(=O)(=O)Cc1nnc(-c2nc3cc(C(F)(F)F)cc(F)c3[nH]2)n1-c1cccc(Cl)c1Cl (single isomer, unassigned) [Compound 187, 2-(4-(2,3-Dichlorophenyl)-5-((methylsulfonyl)methyl)-4H-1,2,4-triazol-3-yl)-7-fluoro-5-(trifluoromethyl)-1H-benzo[d]imidazole] | ≤ 100
FC(F)C1(c2ccc3[nH]c(-c4nncn4-c4ccncc4OC(F)(F)F)nc3c2)CC1 [Compound 237] | ≤ 100
OCC1(c2ccc3[nH]c(-c4nncn4-c4cccc(Cl)c4Cl)nc3c2)CCC1 [Example 130] | ≤ 100
Cc1cncc(-n2cnnc2-c2nc3cc(C(F)(F)F)ccc3[nH]2)c1Cl [Example 123] | ≤ 100
Cc1c(Cl)cncc1-n1cnnc1-c1nc2cc(C(F)(F)F)ccc2[nH]1 [Compound 58] | ≤ 100
Nc1nnc(-c2nc3cc(C(F)(F)F)cc(F)c3[nH]2)n1-c1cnccc1C(F)(F)F [Compound 456, 5-(7-fluoro-5-(trifluoromethyl)-1H-benzo[d]imidazol-2-yl)-4-(4-(trifluoromethyl)pyridin-3-yl)-4H-1,2,4-triazol-3-amine] | ≤ 100
Fc1ccc(-n2cnnc2-c2nc3cc(C(F)(F)F)ccc3[nH]2)c(OC(F)(F)F)c1 [Compound 189, 2-(4-(4-fluoro-2-(trifluoromethoxy)phenyl)-4H-1,2,4-triazol-3-yl)-5-(trifluoromethyl)-1H-benzo[d]imidazole] | ≤ 100
FC(F)(F)c1ccc2[nH]c(-c3nnc(COC4COC4)n3-c3cccc(Cl)c3Cl)nc2c1 [Example 124] | ≤ 100
Clc1cccc(-n2cnnc2-c2nc3cc(-c4ccn[nH]4)ccc3[nH]2)c1Cl [Example 68, 2-(4-(2,3-dichlorophenyl)-4H-1,2,4-triazol-3-yl)-5-(1H-pyrazol-5-yl)-1H-benzo[d]imidazole] | ≤ 100
FC(F)(F)c1ccc2[nH]c(-c3nncn3-c3cccc4nccn34)nc2c1 [Example 62] | > 1000
Cc1cc(-c2ccc3[nH]c(-c4nncn4-c4cccc(Cl)c4Cl)nc3c2)sn1 [Example 80, 5-(2-(4-(2,3-dichlorophenyl)-4H-1,2,4-triazol-3-yl)-1H-benzo[d]imidazol-5-yl)-3-methylisothiazole] | 100 to 500
CS(=N)(=O)Cc1nnc(-c2nc3cc(Cl)cc(F)c3[nH]2)n1-c1cccc(F)c1Cl (centres unmarked) [Compound 192, ((4-(2-chloro-3-fluorophenyl)-5-(5-chloro-7-fluoro-1H-benzo[d]imidazol-2-yl)-4H-1,2,4-triazol-3-yl)methyl)(imino)(methyl)-16-sulfanone] | ≤ 100
OCCOc1cc(-c2nc3cc(C(F)(F)F)ccc3[nH]2)c(-c2cccc(Cl)c2Cl)cn1 [Example 65] | ≤ 100
Cc1ccc2[nH]c(-c3c(CO)ccn3C3CCCC3)nc2c1 [Compound 17, (1-cyclopentyl-2-(5-methyl-1H-benzo[d]imidazol-2-yl)-1H-pyrrol-3-yl)methanol] | > 1000

Second part, the molecule after the results:

IC50 [nM] | SMILES
≤ 100 | Fc1cc(C(F)(F)F)cc2nc(-c3nnccc3-c3cnccc3C(F)(F)F)[nH]c12 [Compound 303, 7-Fluoro-5-(trifluoromethyl)-2-(4-(4-(trifluoromethyl)pyridin-3-yl)pyridazin-3-yl)-1H-benzo[d]imidazole]
≤ 100 | FC(F)(F)c1ccc2[nH]c(-n3nncc3-c3cccc(Cl)c3Cl)nc2c1 [Compound 315, 2-(5-(2,3-dichlorophenyl)-1H-1,2,3-triazol-1-yl)-5-(trifluoromethyl)-1H-benzo[d]imidazole]
≤ 100 | FC(F)(F)Oc1cccnc1-n1cnnc1-c1nc2cc(C(F)(F)F)ccc2[nH]1 [Compound 177]
≤ 100 | FC(F)(F)c1ccc2[nH]c(-c3nncn3-c3cnccc3C(F)(F)F)c(-c3ccccn3)c2c1 [Compound 390, 3-(pyridin-2-yl)-5-(trifluoromethyl)-2-(4-(4-(trifluoromethyl)pyridin-3-yl)-4H-1,2,4-triazol-3-yl)-1H-indole]
≤ 100 | Fc1ccc(-n2cnnc2-c2nc3cc(C(F)(F)F)ccc3[nH]2)c(Cl)c1F [Example 120]
≤ 100 | CNC(=O)CCc1nnc(-c2nc3cc(C(F)(F)F)ccc3[nH]2)n1-c1cccc(Cl)c1Cl [Compound 156, 3-(4-(2,3-dichlorophenyl)-5-(5-(trifluoromethyl)-1H-benzo[d]imidazol-2-yl)-4H-1,2,4-triazol-3-yl)-N-methylpropanamide]
≤ 100 | CC(C#N)(CO)c1ccc2[nH]c(-c3nncn3-c3cccc(F)c3Cl)nc2c1 (centres unmarked) [Compound 204, 2-(2-(4-(2-chloro-3-fluorophenyl)-4H-1,2,4-triazol-3-yl)-1H-benzo[d]imidazol-5-yl)-3-hydroxy-2-methylpropanenitrile]
≤ 100 | FC(F)(F)c1ccc2[nH]c(-c3cccn3-c3nnccc3C(F)(F)F)nc2c1 [Compound 305, 5-(Trifluoromethyl)-2-(1-(4-(trifluoromethyl)pyridazin-3-yl)-1H-pyrrol-2-yl)-1H-benzo[d]imidazole]
≤ 100 | FC(F)(F)c1ccc2[nH]c(-c3nncn3-c3cncnc3C(F)(F)F)nc2c1 [Compound 415, 5-(trifluoromethyl)-2-(4-(4-(trifluoromethyl)pyrimidin-5-yl)-4H-1,2,4-triazol-3-yl)-1H-benzo[d]imidazole]
≤ 100 | FC(F)(F)O[C@@H]1CCOC[C@H]1n1cnnc1-c1nc2cc(C(F)(F)F)ccc2[nH]1 (racemic) [Compound 239, 2-(4-((3R,4R)-4-(trifluoromethoxy)tetrahydro-2H-pyran-3-yl)-4H-1,2,4-triazol-3-yl)-5-(trifluoromethyl)-1H-benzo[d]imidazole]
≤ 100 | FC(F)(F)c1ccc2[nH]c(-c3nnc(CN4CCC4)n3-c3cccc(Cl)c3Cl)nc2c1 [Example 125]

Source: patent US20260258064A1 (SIRONAX LTD., priority 2023, published 2026)
